Test systems include CCRF-CEM leukemia; HS 578T breast; IGROV1 ovarian; K-562 leukemia; LOX IMVI melanoma; MCF7 breast; MDA-MB-231 breast; MDA-N; NCI-H522 lung; OVCAR-3 ovarian; OVCAR-4 ovarian; SF-295 CNS; SNB-19 CNS; SR leukemia; SW-620 colon.
Holding throughout (assay): growth of human tumour cells (NCI), 48 h

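Assay format: 96-well plates, 48-hour exposure. TGI is the concentration that stops growth completely.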 Where only a bound is given, the exact number is not on record here.

Regarding `COC1=CC(=O)C2=C(C1=O)[C@H]1CC[C@]3(C)[C@@H](O)CC[C@H]3[C@@H]1CC2`, the TGI with CCRF-CEM leukemia turned out to be 86.2 µM; with HS 578T breast, 42.7 µM; in the test on IGROV1 ovarian it was 44.7 µM; in the test with K-562 leukemia, 83.8 µM; in the test on LOX IMVI melanoma, 35.8 µM; with MCF7 breast, 30.7 µM. Besides, the TGI with MDA-MB-231 breast amounted to 5.84 µM; in the test with MDA-N, 32.8 µM; with NCI-H522 lung, 31.8 µM; in the test with OVCAR-3 ovarian, 32.3 µM; in the test with OVCAR-4 ovarian, 30.9 µM; in the test on SF-295 CNS, 30.3 µM. In addition, the TGI in the test with SNB-19 CNS is 73.2 µM; in the test on SR leukemia, 55.4 µM; with SW-620 colon, over 100 µM.

For the compound `NCCSS(=O)(=O)CCN`, the TGI in the test on CCRF-CEM leukemia, in the test on HS 578T breast, in the test with IGROV1 ovarian, in the test with K-562 leukemia, in the test with LOX IMVI melanoma and in the test with MCF7 breast was over 100 µM throughout. Moreover, the TGI in the test on MDA-MB-231 breast, with MDA-N, in the test with NCI-H522 lung, in the test on OVCAR-3 ovarian, with OVCAR-4 ovarian and in the test with SF-295 CNS was over 100 µM each time. For the same compound, the TGI in the test on SNB-19 CNS, in the test on SR leukemia and in the test on SW-620 colon was over 100 µM throughout.

With `CCc1nn(CN2CCOCC2)c(=S)n1/N=C/c1ccc(-c2ccc(Cl)cc2)o1`, the TGI in the test with HS 578T breast, in the test on IGROV1 ovarian, in the test with K-562 leukemia, in the test with LOX IMVI melanoma, with MCF7 breast and with MDA-MB-231 breast was over 100 µM throughout. Further, the TGI in the test on MDA-N, in the test on NCI-H522 lung, in the test on OVCAR-3 ovarian, in the test with OVCAR-4 ovarian, in the test on SF-295 CNS and in the test on SR leukemia was over 100 µM each time. Also, the TGI with SW-620 colon was over 100 µM.

Regarding `C=CCN1C(=O)/C(=C/c2cccs2)N=C1SC/C=C/C`, the TGI with CCRF-CEM leukemia, in the test on HS 578T breast, in the test with IGROV1 ovarian, in the test on K-562 leukemia, in the test on LOX IMVI melanoma and in the test on MCF7 breast was over 100 µM throughout. In addition, the TGI was over 100 µM in the test on MDA-MB-231 breast; over 100 µM in the test on MDA-N; 97.5 µM with NCI-H522 lung; over 100 µM in the test on OVCAR-3 ovarian; over 100 µM in the test on OVCAR-4 ovarian; over 100 µM in the test with SF-295 CNS. Also, the results for the TGI with SNB-19 CNS, in the test on SR leukemia and with SW-620 colon were over 100 µM, 45.8 µM and over 100 µM, respectively.

Turning to `O=C(c1ccccc1)c1ccc2nc(-c3c(Cl)c(Cl)c(Cl)c(Cl)c3C(=O)N/N=C/c3ccc(Cl)cc3)[nH]c2c1`, the TGI was 71.3 µM with CCRF-CEM leukemia; over 100 µM with HS 578T breast; over 100 µM in the test with IGROV1 ovarian; over 100 µM with K-562 leukemia; over 100 µM in the test on LOX IMVI melanoma; 71.8 µM with MCF7 breast. The TGI was 61.4 µM in the test on MDA-MB-231 breast; over 100 µM in the test with MDA-N; over 100 µM with NCI-H522 lung; 51.5 µM with OVCAR-3 ovarian; over 100 µM in the test with OVCAR-4 ovarian; over 100 µM in the test on SF-295 CNS. Moreover, the TGI with SNB-19 CNS, in the test with SR leukemia and in the test on SW-620 colon was over 100 µM throughout.

Regarding `Cc1cc(C)c(-n2[nH]c(=O)n(C)c2=O)c(C)c1`, the TGI in the test with CCRF-CEM leukemia, in the test on HS 578T breast, in the test with IGROV1 ovarian, in the test on K-562 leukemia, in the test on LOX IMVI melanoma and with MCF7 breast was over 100 µM in each case. Also, the TGI with MDA-MB-231 breast, in the test with MDA-N, in the test with NCI-H522 lung, in the test on OVCAR-3 ovarian, in the test with OVCAR-4 ovarian and in the test with SNB-19 CNS was over 100 µM in each case. The TGI in the test on SR leukemia and with SW-620 colon was over 100 µM each time.

For the compound `COc1cc(C2SCC(=O)N2c2cccc(Cl)c2)cc(OC)c1OC` (stereo unspecified), the TGI was 91.2 µM with CCRF-CEM leukemia; over 100 µM with HS 578T breast; over 100 µM with IGROV1 ovarian; over 100 µM in the test on K-562 leukemia; over 100 µM with LOX IMVI melanoma; over 100 µM in the test with MCF7 breast. Also, the TGI in the test with MDA-MB-231 breast was over 100 µM; with MDA-N it was 43 µM; in the test on NCI-H522 lung it was over 100 µM; with OVCAR-4 ovarian, over 100 µM; in the test on SF-295 CNS it was over 100 µM; in the test with SNB-19 CNS, over 100 µM. Also, the TGI in the test with SR leukemia and in the test on SW-620 colon was over 100 µM each time.

In the case of `CNC(=O)C1(N)c2ccccc2C=Cc2ccccc21`, the TGI with CCRF-CEM leukemia, in the test on HS 578T breast, with IGROV1 ovarian, with K-562 leukemia, in the test on LOX IMVI melanoma and in the test on MCF7 breast was over 100 µM in each case. For the same compound, the TGI with MDA-MB-231 breast, in the test with MDA-N, with NCI-H522 lung, in the test with OVCAR-3 ovarian, in the test with OVCAR-4 ovarian and with SF-295 CNS was over 100 µM each time. In addition, the TGI with SNB-19 CNS, with SR leukemia and in the test with SW-620 colon was over 100 µM each time.

For `COc1cc2c3c(c1)CCCN3CCC2`, the TGI in the test with CCRF-CEM leukemia, with HS 578T breast, in the test with IGROV1 ovarian, in the test with K-562 leukemia, with LOX IMVI melanoma and with MCF7 breast was over 10 µM throughout. Moreover, the TGI in the test on MDA-MB-231 breast, in the test on MDA-N, with NCI-H522 lung, in the test with OVCAR-3 ovarian, with OVCAR-4 ovarian and in the test on SF-295 CNS was over 10 µM in each case. Besides, the TGI in the test on SNB-19 CNS, in the test on SR leukemia and in the test with SW-620 colon was over 10 µM each time.
